Experimental data from patent publication US4719297A, “Acylphosphine compounds and their use as photoinitiators” (priority 1981, dated 1988).
Where two headings read alike, the source gives them in different places.

Key:
[1] = Hardening activity of UP resin A under UV light, temperature/time curve (Table 2); conditions: 0.2% compound
Description: (§1) To measure the hardening activity, the temperature curve for the unsaturated polyester resin (UP resin) was recorded during exposure to UV light. […] To avoid heat losses during the exposure to UV light, the lid was embedded in rigid expanded polyurethane foam. The UV light source used comprised 5 fluorescent tubes (TLAK 40 W/05 from Philips) side by side, at a distance of 8.5 cm from the UP resin surface.
(§2) The hardening time HT25° C.-T.sbsb.max and the maximum hardening temperature Tmax achieved were obtained, as characteristic parameters for the hardening activity, from the recorded temperature/time curves. The hardening time is the interval in which the sample temperature increases from 25° C. to Tmax.
(§3) The Examples and Comparative Examples were carried out using the following unsaturated polyester resins:
Resin A was a 65% strength solution, in styrene, of an unsaturated polyester of maleic acid, o-phthalic acid, ethylene glycol and propylene 1,2-glycol in the molar ratio of 1:2:2.3:0.70, the solution being stabilized with 0.01% of hydroquinone.
(§4) The hardening activity of the novel compounds 1 to 16 (cf. Table 1) was compared with the properties of the following compounds: […]

[2] = Photopolymerization of monomer emulsion, properties of resulting polymer dispersions (Table 5); conditions: for Fikentscher K value / Residual monomers, ethyl acrylate / Residual monomers, methyl acrylate / Solids content: 60 min exposure
Description: A monomer emulsion was prepared from 50 parts of methyl acrylate, 50 parts of ethyl acrylate, 1.3 parts of a 40% strength C15 -paraffin sulfonate, 1.3 parts of an adduct of isooctylphenol with 25 units of ethylene oxide (20% strength) and 210 parts of water in a conventional mixing unit.
This emulsion was introduced into a 1 l glass flask provided with an internal thermometer and a stirrer, and was freed from oxygen by twice evacuating the flask and gassing the emulsion with nitrogen. X parts of the photoinitiator in 6.7 parts of water were added, and the reaction vessel was then exposed for 60 minutes to light from a high pressure mercury vapor lamp of Type HQL/R 400 W from Osram, located 30 cm above the vessel. The beginning of polymerization was evident from an increase in the temperature. The amounts of photoinitiator employed and the properties of the resulting polymer dispersions are summerized in Table 5, photoinitiator 4 (cf. Table 1) being compared with photoinitiator VI (described in U.S. Pat. No. 4.257,859).

[3] = Hardening activity of UP resin C under UV light, temperature/time curve (Table 2); conditions: 0.2% compound
Description: as §1, §2, §3
Resin C was a 66% strength solution, in styrene, of an unsaturated polyester of maleic acid, o-phthalic acid and propylene 1,2-glycol in the molar ratio of 1:0.5:1.5, the solution being stabilized with 0.01% of hydroquinone.
as §4

[4] = Shelf life of UP resin A containing a photoinitiator, stored at 60° C. (Table 3); format: physicochemical; conditions: 0.2% initiator, dark
Description: (§5) To test the shelf life, 6.6 ml of each of the UP resins A, B and C (cf. Example 5) with an initiator content of 0.2% were introduced into brown sample bottles, and the closed bottles were stored at 60° C. At intervals of about 12 hours, the bottles were turned to determine whether gel particles had formed. As a measure of the shelf life, Table 3 gives the maximum storage time at which gel particles were still not observed.
(§6) In addition to the comparative compounds I, II and III, compound V below was also tested: V 2,4,6-trimethylbenzoyldiphenylphosphine oxide as described in U.S. Pat. No. 4,265,723.
(§7) The numbering scheme of the compounds in Table 3 is based on that of Table 1.

[5] = Shelf life of resins containing the compounds, overall comparison; format: physicochemical; conditions: Table 3, in words
Description: as §5, §6

[6] = Hardening activity of UP resin B under UV light, temperature/time curve (Table 2); conditions: 0.2% compound
Description: as §1, §2, §3
Resin B was a 67% strength solution, in styrene, of an unsaturated polyester of maleic acid, tetrahydrophthalic acid and diethylene glycol in the molar ratio of 1:0.5:1.5, the solution being stabilized with 0.01% of hydroquinone.
as §4

[7] = format: physicochemical; conditions: 80° C., closed ampoule
Description: 294 parts of partially hydrolyzed polyvinyl acetate (degree of hydrolysis 82 mole %, average degree of polymerization 500) were dissolved in 294 parts of demineralized water at 90° C. by stirring the mixture for several hours. The solution was cooled to 70° C., and therafter 20 parts of 1,1,1-trimethylolpropane triacrylate, 1,0 part of 2,6-di-tert.-butyl-p-cresol and the amount of photoinitiator given in table 6, dissolved in 230 parts of 2-hydroxyethyl methacrylate, were added, with stirring. The homogeneous viscous solution was filtered, and dehydrated and degassed under reduced pressure. A 550 μm thick, nontacky layer was obtained by applying the solution onto steel sheet provided with an adhesive, and drying the layer for 24 hours at room temperature. The printing plate was pre-exposed for 2 seconds and thereafter exposed inagewise, through a negative, to light from a commercial 5 kW exposure unit for the times given in table 6.
The thermal stability of the photosensitive solutions was determined by storing a sample in a closed ampoule at 80° C. In comparison with compound V, the novel photoinitiators improved the stability of the photosensitive mixture by a factor of 2 (see Table 6), with otherwise very similar behavior.

[8] = Minimum exposure time for faultless reproduction of the 3% tonality on photopolymerizable printing plate (Table 7); conditions: 2 parts photoinitiator; UV about 3,300 μW/cm^2
Description: 60 parts by weight of a 1:1:1 copolyamide consisting of PA-6, PA-6.6 and PA-6.13, 30 parts by weight of ethylene glycol bis-(N-methylolacrylamide) ether, 10 parts by weight of benzenesulfonic acid N-(n-butyl)-amide, 150 parts by weight of methanol, 20 parts by weight of water, 0.02 part by weight of a chromium complex dye (CI No. 12,195), 0.3 part by weight of potassium N-nitrosocyclohexylhydroxylamine and 2 parts by weight of the photoinitiator given in Table 7 were dissolved at about 70° C. The photopolymerizable material was brought to a solids content of about 65% by distilling off part of the solvent and was then cast, at 60° C., on to a strip of steel sheet provided with an adhesive, and drying was effected in a drying oven for about 2 hours at 80° C. The resulting photopolymerizable printing plate contained a 0.5 mm thick layer with a solids content of about 95%.
Using a test negative which had, inter alia, 54 screen lines, per centimeter, of 3% tonality, the plate was exposed to a UV light intensity of about 3,300 μW/cm^2 on a flat-plate exposure unit equipped with superactinic fluorescent tubes. The unexposed parts of the plate which were protected from the UV light by the opaque image elements of the negative were then washed out in a spray washer for 5 minutes at 30° C. and under a spray pressure of 5 bar, using an ethanol/water mixture containing 80% of ethanol. The plate was thereafter dried for 6 minutes at 110° C. The minimum exposure time required for faultless reproduction of the 3% tonality was measured, and the results for various photoinitiators are summarized in Table 7.

[9] = Hardening rate of UV-exposed finish by Konig pendulum method (DIN 53,157) (Table 4); conditions: for Damping of pendulum: 2 parts photoinitiator
Description: An unsaturated polyester was prepared by esterifying 143 parts of tetrahydrophthalic anhydride and 175 parts of maleic anhydride with 260 parts of diethylene glycol. 0.01% of hydroquinone was added, and thereafter a 64% strength solution of the polyester in styrene was prepared (solution D).
For the UV hardening experiments, 10 parts of styrene and 2 parts of the photoinitiator were added to 100 parts of solution D, and the finish was applied to photographic paper on a hardboard base by means of a film spreader (slotwidth 200 μm)
The film was dried in air for about 1 minute and then exposed to light from a 30 watt high pressure mercury vapor lamp of 1 cm arc length (Philips HTQ 7) located 15 cm above the object.
The hardening rate was determined by the Konig pendulum method (DIN 53,157), and is given in Table 4 together with the color measurements carried out on the hardened films.
The numbering scheme for the photoinitiators is based on that of Table 1 and Example 6.

[10] = Shelf life of UP resin C containing a photoinitiator, stored at 60° C. (Table 3); format: physicochemical; conditions: 0.2% initiator, dark
Description: as §5, §6, §7

[11] = Hardening activity in UP resins, overall comparison
Description: as §1, §2, §3, §4

[12] = Shelf life of UP resin B containing a photoinitiator, stored at 60° C. (Table 3); format: physicochemical; conditions: 0.2% initiator, dark
Description: as §5, §6, §7

SMILES | hardening time HT 25°-Tmax [1] | maximum hardening temperature Tmax [1] | hardening time HT 25°-Tmax [3] | maximum hardening temperature Tmax [3] | Shelf life [4] | hardening time HT 25°-Tmax [6] | maximum hardening temperature Tmax [6] | Minimum exposure time required for reproducing the 3% tonality [8] | Damping of pendulum ([9]; exposure time 5 s) | Damping of pendulum ([9]; exposure time 10 s) | Damping of pendulum ([9]; exposure time 15 s) | Damping of pendulum ([9]; exposure time 20 s) | Damping of pendulum ([9]; exposure time 25 s) | Shelf life [10] | Shelf life [12] | further results
Cc1cc(C)c(C(=O)P(=O)([O-])c2ccccc2)c(C)c1.[Na+] [Compound 4, Sodium 2,4,6-trimethylbenzoylphenylphosphinate] | 5/53 | 117 °C | 5/23 | 122 °C | 190 h | 4/37 | 125 °C | 115 s | – | – | – | – | – | – | – | Fikentscher K value ([2]; 0.04 parts X employed): 156.8; Residual monomers, ethyl acrylate ([2]; 0.04 parts X employed): 0.019%; Residual monomers, methyl acrylate ([2]; 0.04 parts X employed): 0.051%; Solids content ([2]; 0.04 parts X employed): 31.3%; Fikentscher K value ([2]; 1.7 parts X employed): 146.6; Residual monomers, ethyl acrylate ([2]; 1.7 parts X employed): < 0.005%; Residual monomers, methyl acrylate ([2]; 1.7 parts X employed): 0.005%; Solids content ([2]; 1.7 parts X employed): 31.4%; activity compared with photoinitiator VI ([2]; same K value of dispersions, in words): higher activity; content of residual monomers compared with photoinitiator VI ([2]; same starting concentration, in words): substantially lower content of residual monomers; initiation of photopolymerization at very low starting concentrations ([2]; very low starting concentrations, in words): permits photopolymerization even at very low starting concentrations; shelf life of resins compared with compounds II, III and V [5]: substantially superior; shelf life of resins compared with resins containing I [5]: not significantly different; Stability ([7]; 6 parts of compound): 34 h
Cc1cc(C)c(C(=O)P(=O)(O)c2ccccc2)c(C)c1 [Compound 12, Methyldiethanolammonium 2,4,6-trimethylbenzoylphenylphosphinate] | 6/15 | 116 °C | 5/23 | 123 °C | – | 5/08 | 129 °C | – | 71 | 92 | 112 | 122 | 130 | – | – | hardening activity compared with compound V ([9]; Table 4, in words): substantially more active hardener; Stability ([7]; 7 parts of compound): 28 h
COP(=O)(C(=O)c1c(C)cc(C)cc1C)c1ccccc1 (centres unmarked) [I, methyl 2,4,6-trimethybenzoylphenylphosphinate, reference compound] | 7/45 | 114 °C | 6/53 | 123 °C | 180 h | 5/23 | 127 °C | – | – | – | – | – | – | 180 h | 155 h | hardening activity compared with the novel compounds ([11]; see Example 5, in words): substantially less active hardener
COP(=O)([O-])C(C)=O.[Na+] [IV, monosodium monomethylacetylphosphonate, reference compound] | 13/15 | 30 °C | – | – | – | – | – | – | – | – | – | – | – | – | – | hardening outcome (footnote to Tmax) [1]: not hardened; suitability for photohardening ([11]; Table 2, in words): unsuitable for photohardening
Cc1cc(C)c(C(=O)P(=O)(c2ccccc2)c2ccccc2)c(C)c1 [V, 2,4,6-trimethylbenzoyldiphenylphosphine oxide, reference compound] | – | – | – | – | 140 h | – | – | 190 s | 43 | 66 | 84 | 102 | 112 | 120 h | 140 h | Stability ([7]; 4 parts of compound): 15 h
